Square brackets hold non-standard residues; d marks the D form. Peptide text beside a SMILES is read from it. * marks the point of attachment. Cys(free,S-linked) = N[C@@H](CS*)C(=O)O; d(hPhe) = N[C@H](CCc1ccccc1)C(=O)O; dCha = N[C@H](CC1CCCCC1)C(=O)O; dChg = N[C@@H](C(=O)O)C1CCCCC1; dPhg = N[C@@H](C(=O)O)c1ccccc1; dTle = CC(C)(C)[C@@H](N)C(=O)O; dAbu = CC[C@@H](N)C(=O)O
Key:
[1] = system: rat peritoneal mast cells; assay: In vitro histamine release in rat peritoneal mast cells (histamine ELISA); type: cell-based; details: for Relative fold of histamine release in vitro: test compound final concentration 10 μM, 15 min at 37° C., relative to PBS buffer (1.00)
Procedure: To evaluate the in vitro histamine release levels induced by some of the test example compounds, rat peritoneal mast cells were collected by lavaging rat peritoneum with a lavage buffer (cold HBSS+25 mM HEPES containing heparin 5 U/mL, pH 7.4). After collection, the cells were centrifuged, and the lavage buffer was discarded. The cells were resuspended and washed twice with a stimulation buffer (HBSS+25 mM HEPES+1 mM CaCl2), pH 7.4). The cells were plated at a density of 10^5 cell/well (200 μL/well) and incubated at 37° C. for 15 min with positive control compound 48/80 (final concentration: 4 μg/mL), test example compounds (final concentration: 10 μM) or vehicle control. The cells were centrifuged, and cell supernatant was collected and tested for histamine concentration according to LDN Histamine ELISA kit (BAE-1000) instructions.

[2] = target: T1, human calcium-sensing receptor (CaSR) (Homo sapiens, UniProt P41180); assay: Agonist activity on human calcium-sensing receptor (IP-One HTRF in stably transfected HEK293/CaSR cells); type: cell-based; details: HEK293/CaSR cells, IP-One production, 60 min at 37° C., CaCl2 1.2 mM; read-out: EC50 for calcium-sensing receptor
T1 construct: host or cells: HEK293
T1 sequence (P41180 20-1078): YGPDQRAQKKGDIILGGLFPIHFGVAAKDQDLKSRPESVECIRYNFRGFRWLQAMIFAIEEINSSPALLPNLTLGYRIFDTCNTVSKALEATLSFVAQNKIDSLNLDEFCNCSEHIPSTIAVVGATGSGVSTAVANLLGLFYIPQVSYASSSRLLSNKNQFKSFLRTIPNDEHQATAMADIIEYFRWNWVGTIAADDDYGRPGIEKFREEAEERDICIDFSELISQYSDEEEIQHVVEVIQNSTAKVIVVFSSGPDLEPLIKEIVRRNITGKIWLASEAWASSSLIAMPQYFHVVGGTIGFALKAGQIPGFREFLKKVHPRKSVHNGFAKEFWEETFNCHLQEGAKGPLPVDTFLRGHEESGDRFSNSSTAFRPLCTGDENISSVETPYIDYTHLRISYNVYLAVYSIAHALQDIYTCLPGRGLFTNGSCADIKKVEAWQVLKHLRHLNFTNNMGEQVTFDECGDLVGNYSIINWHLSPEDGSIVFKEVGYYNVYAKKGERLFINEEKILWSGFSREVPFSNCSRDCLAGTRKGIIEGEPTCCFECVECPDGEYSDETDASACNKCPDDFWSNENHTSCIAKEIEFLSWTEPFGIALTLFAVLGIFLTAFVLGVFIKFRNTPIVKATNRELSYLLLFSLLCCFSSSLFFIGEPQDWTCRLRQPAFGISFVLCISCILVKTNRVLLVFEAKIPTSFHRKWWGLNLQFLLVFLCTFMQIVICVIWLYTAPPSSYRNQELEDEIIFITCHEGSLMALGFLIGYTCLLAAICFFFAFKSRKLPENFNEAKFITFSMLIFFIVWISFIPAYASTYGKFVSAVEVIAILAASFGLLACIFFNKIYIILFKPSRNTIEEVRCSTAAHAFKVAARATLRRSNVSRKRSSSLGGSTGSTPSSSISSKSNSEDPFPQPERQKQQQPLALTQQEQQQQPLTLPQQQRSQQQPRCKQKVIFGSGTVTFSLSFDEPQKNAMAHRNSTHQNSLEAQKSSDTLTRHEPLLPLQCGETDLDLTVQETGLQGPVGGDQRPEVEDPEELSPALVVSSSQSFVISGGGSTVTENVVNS
Procedure: 3.1.1 Objective: The test example is intended to measure the agonist activity of compounds 1-38 on the human calcium-sensing receptor (CaSR).
Stably transfected HEK293/CaSR cells (source: Pharmaron) were cultured in a complete medium (composition: DMEM, high glucose+10% FBS+2 mM GlutaMAX+1× Penicillin-Streptomycin+200 μg/mL Hygromycin B) and incubated at 37° C./5% CO2 till 70%-90% cell confluence. The cells were digested with TrypLE, inoculated into 384-well cell culture plates, and cultured overnight at 37° C./5% CO2. After buffer exchange, stimulation buffer (HEPES 10 mM, MgCl2 0.5 mM, KCl 4.2 mM, NaCl 146 mM, glucose 5.5 mM, LiCl 50 mM, CaCl2 1.2 mM) and various concentrations of the test example compounds were added and incubated at 37° C. for 60 min. Production of IP-One in cells was detected according to the procedures in the Cisbio IP-One Tb kit instructions. The EC50 values of various test example compounds in influencing human calcium-sensing receptor was calculated by software after the raw data of the example compounds were collected, so as to evaluate the agonist activity of the example compounds on human calcium-sensing receptor.
HTRF signal was read by an EnVision detector with an excitation wavelength of 320 nm and emission wavelengths of 620 nm and 665 nm. The signal ratio (665 nm/620 nm×10,000) was calculated and fitted non-linearly to the sample concentration in GraphPad Prism 6 using a four-parameter equation to give EC50 values of the test example compounds 1-38.

Row | Compound | Relative fold of histamine release in vitro [1] | EC50 [2] | histamine release levels in rat peritoneal mast cells in vitro relative to etelcalcetide ([1]; 10 μM, comparison with etelcalcetide)
1 | CC(=O)N[C@H](CSSC[C@H](N)C(=O)O)C(=O)N[C@H](CO)C(=O)N[C@H](CCCNC(=N)N)C(=O)N[C@H](CCCNC(=N)N)C(=O)N[C@H](CCCNC(=N)N)C(=O)NCC(=O)N[C@H](CCCNC(=N)N)C(N)=O [Compound 8, Ac-c(C)-s-r-r-r-G-r-NH2] (Ac-[dC](Cys(free,S-linked))[dS][dR][dR][dR]G[dR]-NH2) | 1.50 | 14.3 µM | 
2 | CC(=O)N[C@H](CSSC[C@H](N)C(=O)O)C(=O)N[C@H](Cc1c[nH]cn1)C(=O)N[C@H](CCCNC(=N)N)C(=O)N[C@H](CCCNC(=N)N)C(=O)N[C@H](CCCNC(=N)N)C(=O)N[C@H](CO)C(=O)N[C@H](CCCNC(=N)N)C(N)=O [Compound 10, Ac-c(C)-h-r-r-r-s-r-NH2] (Ac-[dC](Cys(free,S-linked))[dH][dR][dR][dR][dS][dR]-NH2) | 3.66 | 3.52 µM | 
3 | CC(=O)N[C@H](CSSC[C@H](N)C(=O)O)C(=O)N[C@H](CCCNC(=N)N)C(=O)N[C@H](CCCNC(=N)N)C(=O)N[C@@H](C(=O)N[C@H](CCCNC(=N)N)C(=O)N[C@H](C)C(=O)N[C@H](CCCNC(=N)N)C(N)=O)c1ccccc1 [Compound 11, Ac-c(C)-r-r-(D-Phg)-r-a-r-NH2] (Ac-[dC](Cys(free,S-linked))[dR][dR][dPhg][dR][dA][dR]-NH2) | 1.11 | 15.7 µM | 
4 | CC(=O)N[C@H](CSSC[C@H](N)C(=O)O)C(=O)N[C@H](CCCNC(=N)N)C(=O)N[C@H](CCCNC(=N)N)C(=O)N[C@H](CCc1ccccc1)C(=O)N[C@H](CCCNC(=N)N)C(=O)N[C@H](C)C(=O)N[C@H](CCCNC(=N)N)C(N)=O [Compound 16, Ac-c(C)-r-r-(D-hPhe)-r-a-r-NH2] (Ac-[dC](Cys(free,S-linked))[dR][dR][d(hPhe)][dR][dA][dR]-NH2) | 2.94 | 2.37 µM | 
5 | CC(=O)N[C@H](CSSC[C@H](N)C(=O)O)C(=O)N[C@H](CCCNC(=N)N)C(=O)N[C@H](CCCNC(=N)N)C(=O)N[C@@H](C(=O)N[C@H](CCCNC(=N)N)C(=O)N[C@H](C)C(=O)N[C@H](CCCNC(=N)N)C(N)=O)C(C)(C)C [Compound 18, Ac-c(C)-r-r-(D-Tle)-r-a-r-NH2] (Ac-[dC](Cys(free,S-linked))[dR][dR][dTle][dR][dA][dR]-NH2) | 1.24 | 13.4 µM | 
6 | CC(=O)N[C@H](CSSC[C@H](N)C(=O)O)C(=O)N[C@H](CCCNC(=N)N)C(=O)N[C@H](CCCNC(=N)N)C(=O)N[C@@H](C(=O)N[C@H](CCCNC(=N)N)C(=O)N[C@H](C)C(=O)N[C@H](CCCNC(=N)N)C(N)=O)C1CCCCC1 [Compound 20, Ac-c(C)-r-r-(D-Chg)-r-a-r-NH2] (Ac-[dC](Cys(free,S-linked))[dR][dR][dChg][dR][dA][dR]-NH2) | 2.33 | 7.53 µM | 
7 | CC(=O)N[C@H](CSSC[C@H](N)C(=O)O)C(=O)N[C@H](CCCNC(=N)N)C(=O)N[C@H](CCCNC(=N)N)C(=O)N[C@H](CC1CCCCC1)C(=O)N[C@H](CCCNC(=N)N)C(=O)N[C@H](C)C(=O)N[C@H](CCCNC(=N)N)C(N)=O [Compound 21, Ac-c(C)-r-r-(D-Cha)-r-a-r-NH2] (Ac-[dC](Cys(free,S-linked))[dR][dR][dCha][dR][dA][dR]-NH2) | 3.42 | 5.59 µM | 
8 | CC(=O)N[C@H](CSSC[C@H](N)C(=O)O)C(=O)N[C@H](CCCNC(=N)N)C(=O)N[C@H](CCCNC(=N)N)C(=O)N[C@H](CO)C(=O)N[C@H](CCCNC(=N)N)C(=O)NCC(=O)N[C@H](CCCNC(=N)N)C(N)=O [Compound 22, Ac-c(C)-r-r-s-r-G-r-NH2] (Ac-[dC](Cys(free,S-linked))[dR][dR][dS][dR]G[dR]-NH2) | 1.63 | 15.4 µM | 
9 | CC(=O)N[C@H](CSSC[C@H](N)C(=O)O)C(=O)N[C@H](CCCNC(=N)N)C(=O)N[C@H](CCCNC(=N)N)C(=O)N[C@H](Cc1ccc(O)cc1)C(=O)N[C@H](CCCNC(=N)N)C(=O)N[C@H](C)C(=O)N[C@H](CCCNC(=N)N)C(N)=O [Compound 24, Ac-c(C)-r-r-y-r-a-r-NH2] (Ac-[dC](Cys(free,S-linked))[dR][dR][dY][dR][dA][dR]-NH2) | 3.18 | 2.03 µM | 
10 | CC(=O)N[C@H](CSSC[C@H](N)C(=O)O)C(=O)N[C@H](CCCNC(=N)N)C(=O)N[C@H](CCCNC(=N)N)C(=O)N[C@H](CO)C(=O)N[C@H](CCCNC(=N)N)C(=O)N[C@H](CO)C(=O)N[C@H](CCCNC(=N)N)C(N)=O [Compound 25, Ac-c(C)-r-r-s-r-s-r-NH2] (Ac-[dC](Cys(free,S-linked))[dR][dR][dS][dR][dS][dR]-NH2) | 1.65 | 10.1 µM | 
11 | CC(=O)N[C@H](CSSC[C@H](N)C(=O)O)C(=O)N[C@H](CCCNC(=N)N)C(=O)N[C@H](CCCNC(=N)N)C(=O)N[C@H](CCC(N)=O)C(=O)N[C@H](CCCNC(=N)N)C(=O)N[C@H](CO)C(=O)N[C@H](CCCNC(=N)N)C(N)=O [Compound 26, Ac-c(C)-r-r-q-r-s-r-NH2] (Ac-[dC](Cys(free,S-linked))[dR][dR][dQ][dR][dS][dR]-NH2) | 1.73 | 9.24 µM | 
12 | CC(=O)N[C@H](CSSC[C@H](N)C(=O)O)C(=O)N[C@H](CCCNC(=N)N)C(=O)N[C@H](CCCNC(=N)N)C(=O)N[C@H](Cc1c[nH]cn1)C(=O)N[C@H](CCCNC(=N)N)C(=O)N[C@H](CO)C(=O)N[C@H](CCCNC(=N)N)C(N)=O [Compound 27, Ac-c(C)-r-r-h-r-s-r-NH2] (Ac-[dC](Cys(free,S-linked))[dR][dR][dH][dR][dS][dR]-NH2) | 2.23 | 10.8 µM | 
13 | CC(=O)N[C@H](CSSC[C@H](N)C(=O)O)C(=O)N[C@H](CCCNC(=N)N)C(=O)N[C@H](CCCNC(=N)N)C(=O)N[C@@H](C(=O)N[C@H](CCCNC(=N)N)C(=O)NCC(=O)N[C@H](CCCNC(=N)N)C(N)=O)C(C)C [Compound 30, Ac-c(C)-r-r-v-r-G-r-NH2] (Ac-[dC](Cys(free,S-linked))[dR][dR][dV][dR]G[dR]-NH2) | 1.51 | 19.6 µM | 
14 | CC[C@@H](NC(=O)[C@@H](CCCNC(=N)N)NC(=O)[C@@H](CCCNC(=N)N)NC(=O)[C@@H](CSSC[C@H](N)C(=O)O)NC(C)=O)C(=O)N[C@H](CCCNC(=N)N)C(=O)NCC(=O)N[C@H](CCCNC(=N)N)C(N)=O [Compound 32, Ac-c(C)-r-r-(D-Abu)-r-G-r-NH2] (Ac-[dC](Cys(free,S-linked))[dR][dR][dAbu][dR]G[dR]-NH2) | 1.41 | 13.1 µM | reduction in histamine release levels

From patent US20230041996A1, “CALCIUM-SENSING RECEPTOR AGONIST COMPOUND AND APPLICATION THEREOF” (BEIJING TUO JIE BIOPHARMACEUTICAL CO. LTD., priority 2019, published 2023)
